Like-named read-outs stand apart in the source and are kept apart here. Each block holds one molecule with its values, some of them ahead of it.
How the values were obtained:
[1] = tested on: normal human primary dermal fibroblasts; set-up: method as in PMID 29688241; conditions: 48 h; previously published complex; cited from earlier work
[2] = tested on: HCT116 cells (colorectal carcinoma); set-up: method as in PMID 29688241; conditions: previously published complex, cited from earlier work
[3] = tested on: A2780 cells (ovarian carcinoma); set-up: method as in PMID 29688241; conditions: previously published complex, cited from earlier work
[4] = tested on: HCT116 cells (colorectal carcinoma); experiment: MTS cell viability assay, HCT116 2D; format: cell-based, human
Method: (§1) The antiproliferative effect of the Cu(II) complexes in tumor and healthy cell lines was assessed through the MTS assay, a colorimetric method that is widely used to evaluate cellular viability, specifically mitochondrial viability.[53],[54] Cellular viability was determined after 48 h exposure to a concentration range (0.1–50 μM) of Cu(II) complexes in three tumor cell lines. […] Additionally, the viability of healthy primary dermal fibroblasts was performed as a comparison of the complexes’ antiproliferative effects in normal cells.
(§2) Cellular viability assays were performed using HCT116, HCT116-DoxR, and A2780 cancer cell lines as well as normal human primary fibroblasts. Cells were seeded at a density of 0.75 × 10^5 cells/mL in 96-well plates and incubated at 37 °C with 5% (v/v) CO2 for 24 h. After this incubation period, the copper complexes were accurately weighed and immediately dissolved in 100% (v/v) dimethyl sulfoxide (DMSO). Subsequently, the complexes were diluted to the final concentration using a cell culture medium. The culture medium in each well was replaced with fresh medium containing varying concentrations of the complexes (ranging from 0.01 to 50 μM). Negative controls contained culture medium with 0.1% (v/v) DMSO, and positive controls contained 0.4 μM Dox.
(§3) After an additional 48 h of incubation under the same conditions, cellular viability was assessed using the CellTiter 96 Aqueous One Solution Cell Proliferation Assay kit (Promega, Madison, USA). Metabolically active cells contain mitochondrial dehydrogenases that can reduce 3-(4,5-dimethylthiazol-2-yl)-5-(3-carboxymethoxyphenyl)-2-(4-sulfophenyl)-2H-tetrazolium, the inner salt (MTS) to formazan. The absorbance of formazan, measured at 490 nm in a microplate reader (Tecan Infinite M200, Tecan, Männedorf, Switzerland), is directly proportional to the number of viable cells.[104]
(§4) The cell viability versus concentration graphics were analyzed using Prism 8 software (GraphPad) to determine the half-maximal inhibitory concentration (IC50) of each complex for the respective cell line. Additionally, the selective index (SI) for each complex was calculated by dividing the IC50 of human fibroblasts by the IC50 values of the tested cancer cell lines.

[5] = tested on: A2780 cells (ovarian carcinoma); experiment: MTS cell viability assay, A2780; format: cell-based, human
Method: as §1, §2, §3, §4

[6] = tested on: HCT116-DoxR cells (doxorubicin resistant colorectal carcinoma); experiment: MTS cell viability assay, HCT116-DoxR 2D; format: cell-based, human; conditions: for IC50: 48 h of exposure
Method: as §1, §2, §3, §4

[7] = tested on: normal human primary dermal fibroblasts; experiment: MTS cell viability assay, normal fibroblasts; format: cell-based; conditions: 48 h of exposure
Method: as §1, §2
After an additional 48 h of incubation under the same conditions, cellular viability was assessed using the CellTiter 96 Aqueous One Solution Cell Proliferation Assay kit (Promega, Madison, USA). […] The absorbance of formazan, measured at 490 nm in a microplate reader (Tecan Infinite M200, Tecan, Männedorf, Switzerland), is directly proportional to the number of viable cells.[104]
as §4

[8] = tested on: HCT116-DoxR cells (doxorubicin resistant colorectal carcinoma); set-up: method as in PMID 37311060; conditions: previously determined; read-out: IC50 for the HCT116-DoxR cell line; cited from earlier work
HCT116-DoxR cells = experiment: Autophagy induction (CYTO-ID green, flow cytometry); format: cell-based, human; conditions: 48 h; complexes at IC50, Dox 6 μM, Cis 5 μM, rapamycin 1500 nM
Text: Furthermore, previous studies have shown that complexes containing terpyridine derivatives have the ability to trigger both apoptosis and autophagy cell death mechanisms in cancer cells simultaneously.[38] This convergence of death pathways may arise from an adaptive response of the heterogeneous tumor cell population.[38] In this context, understanding the mechanism by which cells lose viability in the presence of the two Cu(II) complexes with the simultaneous induction of apoptosis and autophagy becomes crucial. Autophagy is a highly conserved catabolic process crucial for maintaining cellular homeostasis but is also associated with type II programmed cell death.[75] It involves intracellular degradation through autophagolysosomes responsible for breaking down luminal content and enabling recycling of cellular components.[76],[77] The assessment of the complexes’ ability to induce autophagy was conducted using flow cytometry, employing the CYTO-ID green detection reagent. This probe emits green fluorescence, marking the autophagic vacuoles within the cell. Higher fluorescence indicates a greater proportion of autophagolysosomes.[78] Three positive controls were used: Dox, Cis, and rapamycin (1500 nM), whose concentration was previously optimized for the HCT116-DoxR cell line in the laboratory.[64] Rapamycin is known to induce autophagy through its mechanistic target, mTOR.
Cell death via autophagy was evaluated using the Autophagy Assay Kit (ab139484; Abcam, Cambridge, United Kingdom), according to the manufacturers’ instructions. HCT116-DoxR cells were seeded at a density of 1 × 10^5 cells/mL in 6-well plates for 24 h, under the same conditions described before. After this incubation period, the culture medium was replaced with a fresh medium containing the copper complexes under evaluation at their IC50 concentration. A 0.1% (v/v) DMSO solution was used as the negative (vehicle) control, and 6 μM Dox and 5 μM Cis were used as positive controls. The cells were incubated again for 48 h. Rapamycin (1500 nM) was also added as a positive control, and it was added 18 h before the end of the 48 h incubation. After this period, the supernatant was discarded, and each well was washed with PBS 1×. Subsequently, cells were detached using TrypLE Express and washed with phenol red-free DMEM medium containing 5% (v/v) FBS. Cells were incubated with Green Stain Solution in phenol red-free DMEM medium containing 5% (v/v) FBS for 30 min at RT. After this period, the samples were washed and then resuspended in Assay Buffer 1×. The samples were analyzed using an Attune Acoustic Focusing Flow Cytometer (Life Technologies, Carlsbad, USA), and the results were analyzed via the Attune Cytometric software.

[9] = 48 h of exposure, MTS, relative IC50, mean + SEM
[10] = free ligands, at least two independent assays, read-out: IC50 of ligands HCT116-DoxR

Compound: COc1ccc(-c2cc(-c3ccccn3)nc(-c3ccccn3)c2)c2ccccc12.[Cl][Cu][Cl] [Cu1c]
- IC50 [1]: 32.78 ± 0.06 µM
- IC50 ([2]; 48 h): 400 ± 60 nM
- SI HCT116 ([2]; IC50 fibroblasts / IC50 HCT116): 82
- IC50 ([3]; 48 h): 950 ± 50 nM
- SI A2780 ([3]; IC50 fibroblasts / IC50 A2780): 34.5

Compound: COc1ccc2cc(-c3cc4[n+]5c(c3)-c3cccc[n+]3[Cu-3]5([Cl])([Cl])[n+]3ccccc3-4)ccc2c1 [Cu1d]
- IC50 [4, 9]: 360 ± 40 nM
- SI HCT116 ([4]; ratio IC50 fibroblasts / IC50 HCT116): 17.8
- IC50 [5, 9]: 480 ± 80 nM
- SI A2780 ([5]; ratio IC50 fibroblasts / IC50 A2780): 13.4
- IC50 ([6]; MTS, relative IC50, mean + SEM, read-out: IC50 HCT116-DoxR (2D)): 310 ± 10 nM
- SI HCT116-DoxR ([6]; ratio IC50 fibroblasts / IC50 HCT116-DoxR): 20.7
- IC50 [7]: 6.42 ± 0.5 µM

Compound: CC(C)(C)OO [TBHP, Tert-butyl hydroperoxide]
- IC50 [8]: 42 µM

Compound: CO[C@H]1C[C@@H]2CC[C@@H](C)[C@@](O)(O2)C(=O)C(=O)N2CCCC[C@H]2C(=O)O[C@H]([C@H](C)C[C@@H]2CC[C@@H](O)[C@H](OC)C2)CC(=O)[C@H](C)/C=C(\C)[C@@H](O)[C@@H](OC)C(=O)[C@H](C)C[C@H](C)/C=C/C=C/C=C/1C [rapamycin, Rapamycin]
- increase in autophagic vesicles compared to 0.1% DMSO control (HCT116-DoxR cells): increase in green fluorescence intensity

The remaining lines, values ahead:

- IC50 [6, 10]: ~180 nM
Compound: c1ccc(-c2cc(-c3cccc4ccccc34)cc(-c3ccccn3)n2)nc1 [L1a]

- IC50 [6, 10]: 240 ± 400 nM
Compound: c1ccc(-c2cc(-c3ccc4ccccc4c3)cc(-c3ccccn3)n2)nc1 [L1b]

- IC50 [6, 10]: 200 ± 50 nM
Compound: COc1ccc2cc(-c3cc(-c4ccccn4)nc(-c4ccccn4)c3)ccc2c1 [L1d]

- IC50 [6, 10]: > 50000 nM
Compound: c1ccc2c(-c3cc(-c4nccs4)nc(-c4nccs4)c3)cccc2c1 [L2a]

- IC50 [6, 10]: > 50000 nM
Compound: c1ccc2cc(-c3cc(-c4nccs4)nc(-c4nccs4)c3)ccc2c1 [L2b]

- IC50 [6, 10]: ~11500 nM
Compound: COc1ccc(-c2cc(-c3nccs3)nc(-c3nccs3)c2)c2ccccc12 [L2c]

- IC50 [6, 10]: ~14600 nM
Compound: COc1ccc2cc(-c3cc(-c4nccs4)nc(-c4nccs4)c3)ccc2c1 [L2d]

From article PMC11571215, “Optimization of Antiproliferative Properties of Triimine Copper(II) Complexes” (Journal of Medicinal Chemistry, 2024)
